Results reported in PMC12176620, “Structure of the ATP-driven methyl-coenzyme M reductase activation complex” (Nature, 2025).

Columns and labels:
[1] = target: T1, A2 component (Methanococcus maripaludis, UniProt A0A2L1C9A1); assay: mass photometry (stabilisation of the complex); format: binding; settings: 5 mM AMP-PNP, 20 mM Ti(III) citrate; indirect, through assembly of A2 with MCR
T1 construct: gene opuCA; with Methyl-coenzyme M reductase subunit alpha; Methyl-coenzyme M reductase subunit beta; Methyl-coenzyme M reductase subunit gamma; Methyl-coenzyme M reductase operon protein C; Methanogenesis marker protein 7; Methanogenesis marker protein 17; Methanogenesis marker protein 3; DUF2098 domain-containing protein

[2] = target: T1, A2 component; assay: cryo-EM structure; format: binding; settings: two ATP with Mg ions, pre-hydrolytic state; sample incubated with 5 mM ATP
[3] = target: T2, MCR (McrABG core) in the MCR activation complex (Methanococcus maripaludis, UniProt A0A2L1CBB0+A0A2L1CBB3+A0A2L1CBG2); assay: cryo-EM structure; format: binding
T2 construct: gene mcrA; native complex pulled down from M. maripaludis by genomic N-terminal Twin-Strep-tag on McrC; McrA with native post-translational modifications; with Methyl-coenzyme M reductase operon protein C; Methanogenesis marker protein 7; Methanogenesis marker protein 17; Methanogenesis marker protein 3; Methyl-coenzyme M reductase system component A2; DUF2098 domain-containing protein

[4] = target: methyl-coenzyme M reductase (MCR) core (Methanococcus maripaludis (endogenous in M. maripaludis JJ Δupt)) (UniProt Q6LWZ9); assay: cryo-EM structure; single-particle analysis of the Strep-Tactin-purified MCR activation complex (1.2 mg/ml), vitrified anaerobically 'as isolated' (maps with A2 at 2.5 Å and without A2 at 2.7 Å) and after 30 min with 5 mM ATP and the CH4 reaction components except Ti(III) citrate (2.1 Å, locally 1.8 Å)

T2 sequence (A0A2L1CBB3 entry or part of it): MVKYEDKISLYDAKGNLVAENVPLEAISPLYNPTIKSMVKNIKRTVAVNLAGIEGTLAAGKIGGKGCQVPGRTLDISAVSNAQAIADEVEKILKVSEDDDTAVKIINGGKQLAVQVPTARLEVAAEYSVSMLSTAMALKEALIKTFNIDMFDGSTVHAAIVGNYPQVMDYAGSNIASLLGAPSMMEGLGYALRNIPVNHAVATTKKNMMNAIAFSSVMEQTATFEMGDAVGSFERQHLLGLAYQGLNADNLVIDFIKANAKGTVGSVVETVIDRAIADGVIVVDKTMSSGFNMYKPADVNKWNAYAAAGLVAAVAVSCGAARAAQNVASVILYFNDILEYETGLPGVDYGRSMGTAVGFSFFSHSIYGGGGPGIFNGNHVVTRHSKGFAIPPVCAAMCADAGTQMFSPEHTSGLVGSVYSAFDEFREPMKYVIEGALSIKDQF
T2 sequence (A0A2L1CBB0 entry or part of it): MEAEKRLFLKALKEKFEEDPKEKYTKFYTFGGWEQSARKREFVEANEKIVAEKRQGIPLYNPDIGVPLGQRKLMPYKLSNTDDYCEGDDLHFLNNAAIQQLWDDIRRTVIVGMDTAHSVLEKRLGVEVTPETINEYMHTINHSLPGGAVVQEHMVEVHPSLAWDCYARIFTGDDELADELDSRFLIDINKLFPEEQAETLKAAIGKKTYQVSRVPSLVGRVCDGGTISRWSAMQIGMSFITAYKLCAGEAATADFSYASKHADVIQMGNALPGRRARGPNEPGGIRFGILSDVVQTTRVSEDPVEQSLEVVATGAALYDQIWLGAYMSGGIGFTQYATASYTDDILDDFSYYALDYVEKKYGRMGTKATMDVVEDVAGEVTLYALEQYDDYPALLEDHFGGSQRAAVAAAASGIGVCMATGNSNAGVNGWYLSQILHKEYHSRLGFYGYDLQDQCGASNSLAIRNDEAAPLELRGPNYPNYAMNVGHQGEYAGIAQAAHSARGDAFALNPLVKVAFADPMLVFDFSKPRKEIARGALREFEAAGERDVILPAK
T2 sequence (A0A2L1CBG2 entry or part of it): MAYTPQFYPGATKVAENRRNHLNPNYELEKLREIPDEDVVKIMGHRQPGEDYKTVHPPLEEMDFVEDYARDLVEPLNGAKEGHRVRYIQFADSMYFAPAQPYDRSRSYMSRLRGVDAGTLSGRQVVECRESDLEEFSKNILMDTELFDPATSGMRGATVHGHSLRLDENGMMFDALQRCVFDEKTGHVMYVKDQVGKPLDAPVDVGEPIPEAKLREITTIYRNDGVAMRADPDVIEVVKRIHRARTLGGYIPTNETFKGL
T2 sequence (G0H3B1 entry or part of it, further chain): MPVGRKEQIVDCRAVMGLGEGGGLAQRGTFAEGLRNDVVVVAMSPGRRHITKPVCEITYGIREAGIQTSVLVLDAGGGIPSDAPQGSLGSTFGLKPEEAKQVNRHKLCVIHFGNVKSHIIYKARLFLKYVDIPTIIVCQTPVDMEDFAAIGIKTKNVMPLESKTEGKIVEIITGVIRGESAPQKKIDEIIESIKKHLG

For `Nc1ncnc2c1ncn2[C@@H]1O[C@H](COP(=O)(O)OP(=O)(O)NP(=O)(O)O)[C@@H](O)[C@H]1O` [AMP-PNP], the “mass photometry (stabilisation of the complex)” value [1] was “A similar effect was observed when AMP-PNP, a non-hydrolysable ATP analogue, was used”.

`Nc1ncnc2c1ncn2[C@@H]1O[C@H](COP(=O)(O)OP(=O)(O)OP(=O)(O)O)[C@@H](O)[C@H]1O` [ATP] was tested, and the cryo-EM structure [2] was “Our structure revealed two ATP molecules and their coordinating Mg ions”.

`C[C@@H](OP(=O)(O)O)[C@H](NC(=O)CCCCCCS)C(=O)O` [CoB–SH] was tested, and the cryo-EM structure ([3]; distal active site) was “the phosphate moiety of CoB–SH was kept in place by the positively charged McrA residues”.

`C[C@@H](OP(=O)(O)O)[C@H](NC(=O)CCCCCCSSCCS(=O)(=O)O)C(=O)O` [CoMS–SCoB] was tested, and the cryo-EM structure ([3]; proximal active site, next to F430, sample incubated with ATP) was “In the proximal active site, we found the CoMS–SCoB heterodisulfide next to F430”.

B1: A2 component (natural protein)
chain: MLLLEVKNVSKSYGDTEVLKNVSFELNEGDVMGVLGRSGAGKSVLLHMLRGMEGYEPTSGQIIYHVAYCPHCENVEAPSQVGKKCECETEYVAKSVDFWNNNEITYALKKKIAIMLQRTFALYGEKTVAENIMEALTAAGYEGKDATEWALNLIKMVKLEHRVAHISRDLSGGEKQRVVLARQIAKNPVIFLADEPTGTLDPKTAKFVHNALTEAVIKHNIAMVITSHWPEVIEELCQKAIWLDKGEMRLVGESKHVVEEFMKTVTSMKEFEKVEVKDELLKLENVEKRYVSVDRGIVKAVDGIDVSINEKEIFGLVGVSGAGKTTLSKIIAAVIPPSKGNYEFRLADEWVDMTKVGPLYRGRAKRYIGMLFQEYSLYPHRTILYNLTESIGLEMPGEFAKMKAEHTLVSVGFTEEEAENMLEKHPSELSVGEKHRVALAQVLIREPHLILLDEPTGTMDPITRNQVAESIQKSRSELDQTYVIVSHDMDFVLNVCDRAALVRGGKIIKTGKPDEIVKILSEEEKDEMIGH
Work on B1 yielded an occupancy of the A2 component, sample preincubated with 5 mM ATP (% of the particles) [4] of 92 and a percent of particles with the A2 component, sample 'as isolated' (% of particles) [4] of 58.
